Patent publication US9051325B2, “Bicyclic [5,6] imidazo pyrimodone compounds for use in the treatment of diseases or conditions mediated by Lp-PLA2” (GlaxoSmithKline Intellectual Property Development Limited, priority 2013, dated 2015)
Where two headings read alike, the source gives them in different places.

Columns and labels:
[1] = tested on: proinflammatory (M1) and anti-inflammatory (M2) markers in macrophages; assay: Ex vivo analysis of M1 and M2 markers in macrophages of EAE rats by realtime PCR; parameters: species or system rat; details: splenic and CNS infiltrating macrophages of EAE rats
Protocol: Ex vivo analysis of proinflammatory (M1) and anti-inflammatory (M2) markers in control and compound treated EAE rats. Splenic macrophages were harvested at day 13 post MBP-immunization and assayed for expression of a variety of markers by realtime PCR. CNS infiltrating cells were harvested and macrophages were analyzed for expression of M1 and M2 markers by realtime PCR.

rat EAE model = assay: Rat experimental autoimmune encephalomyelitis (EAE) model, preventive treatment; format: in vivo
Protocol: A further study was carried out to study the impact of Lp-PLA2 inhibitors on modulating M1/M2 imbalance. In this study, rats were induced to develop experimental autoimmune encephalomyelitis (EAE) by immunization with myelin basic protein (MBP) antigen and treated with a known Lp-PLA2 inhibitor: 5-((9-Methoxy-4-oxo-6,7-dihydro-4H-pyrimido[6,1-a]isoquinolin-2-yl)oxy)-2-(3-(trifluoromethyl)phenoxy)benzonitrile (See PCT application no. PCT/CN2011/001597). In this preventive treatment model, the compound was administered at day 0 (day of immunization) and continued to administer until day 22. The study lasted for 25 days. Rats were subsequently monitored for symptoms of EAE. Rats were immunized with MBP to develop EAE and symptoms were monitored daily. Plasma Lp-PLA2 activity, OxLDL, and LysoPC concentration were determined at different time points through the course of EAE.

[2] = target: T1, recombinant human Lp-PLA2 (Homo sapiens, UniProt Q13093); assay: Recombinant human Lp-PLA2 assay (rhLp-PLA2, PED6 assay); format: biochemical
T1 sequence (Q13093 22-441): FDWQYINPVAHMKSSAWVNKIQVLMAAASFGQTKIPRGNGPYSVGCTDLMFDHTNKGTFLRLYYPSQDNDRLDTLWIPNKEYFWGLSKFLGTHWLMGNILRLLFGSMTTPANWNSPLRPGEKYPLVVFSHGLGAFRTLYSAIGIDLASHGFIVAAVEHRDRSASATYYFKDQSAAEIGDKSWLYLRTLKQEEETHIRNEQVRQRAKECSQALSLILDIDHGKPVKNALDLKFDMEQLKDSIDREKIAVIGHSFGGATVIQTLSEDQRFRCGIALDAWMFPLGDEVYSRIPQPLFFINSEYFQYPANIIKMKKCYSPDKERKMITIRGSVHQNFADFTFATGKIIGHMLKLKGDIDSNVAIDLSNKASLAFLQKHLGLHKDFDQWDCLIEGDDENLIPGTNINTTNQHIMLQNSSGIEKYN
How it was run: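 Compounds were preincubated 30 min with 4 nM […] rhLp-PLA2 in 50 mM HEPES pH 7.4, 150 mM NaCl, 1 mM CHAPS, then PED6 substrate […] was added for 20 min at room temperature in the dark. Fluorescence was read at ex 480/em 540, and pIC50 was fitted from 1:3 serial dilutions.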

Lp-PLA2 in human plasma = target: T2, Lp-PLA2 in human plasma (Homo sapiens, UniProt Q13093); assay: Lp-PLA2 human plasma assay (Thio-PAF assay); format: biochemical; details: pooled human plasma; lower bounds; read-out: pIC50 values in the thio-PAF assay (converted)
T2 construct: from tissue; host or cells: pooled human plasma
T2 sequence (Q13093 22-441): T1 sequence (Q13093 22-441)
How it was run: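 Pooled human plasma preincubated 30 min with compounds, then given 2-thio-PAF substrate with CPM and NEM in 50 mM HEPES pH 7.4, 150 mM NaCl, 1 mM CHAPS. Reaction quenched after 2 min with TFA and read by fluorescence (ex 380/em 485) after 40 min at room temperature; pIC50 from curve fit.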

[3] = lower bounds, read-out: pIC50 values in the PED6 assay (converted)

Compound	IC50 [2, 3] [nM]	IC50 (Lp-PLA2 in human plasma) [nM]	also measured
COc1ccc2c(c1)CCn1c-2cc(Oc2ccc(Oc3cccc(C(F)(F)F)c3)c(C#N)c2)nc1=O [5-((9-Methoxy-4-oxo-6,7-dihydro-4H-pyrimido[6,1-a]isoquinolin-2-yl)oxy)-2-(3-(trifluoromethyl)phenoxy)benzonitrile]			M1 markers [1]: decrease; M2 markers [1]: increase; Lp-PLA2 activity in rat EAE plasma (rat EAE model; rat EAE plasma): decreased; LysoPC levels in rat EAE plasma (rat EAE model; rat EAE plasma): decreased; clinical disease (rat EAE model; rat EAE, MBP immunization, administered day 0 to day 22): reduction in clinical disease
CN1c2cc(OCc3cc(F)c(F)c(F)c3)nc(=O)n2CC1(C)C [Example E110, 1,2,2-trimethyl-7-((3,4,5-trifluorobenzyl)oxy)-2,3-dihydroimidazo[1,2-c]pyrimidin-5(1H)-one]	≤ 10	≤ 100	
CN1c2cc(OCc3ccc(Oc4ccc(C(F)(F)F)nc4)c(F)c3)nc(=O)n2CC1(C)C [Example E112, 7-((3-fluoro-4-((6-(trifluoromethyl)pyridin-3-yl)oxy)benzyl)oxy)-1,2,2-trimethyl-2,3-dihydroimidazo[1,2-c]pyrimidin-5(1H)-one]	≤ 1	≤ 100	
CN1c2cc(OCc3cc(F)c(Oc4cncc(Cl)c4)c(F)c3)nc(=O)n2CC1(C)C [Example E113, 7-((4-((5-chloropyridin-3-yl)oxy)-3,5-difluorobenzyl)oxy)-1,2,2-trimethyl-2,3-dihydroimidazo[1,2-c]pyrimidin-5(1H)-one]	≤ 1	≤ 100	
CN1c2cc(OCc3cc(F)cc(F)c3)nc(=O)n2CC1(C)C [Example E114, 7-((3,5-difluorobenzyl)oxy)-1,2,2-trimethyl-2,3-dihydroimidazo[1,2-c]pyrimidin-5(1H)-one]	≤ 1	≤ 100	IC50 ([2]; read-out: rhLp-PLA2 (PED6 assay) (pIC50) (converted)): 0.794 nM
CC1(C)Cn2c(cc(OCc3cc(F)c(Oc4ccnc(F)c4)c(F)c3)nc2=O)N1 [Example E116, 7-((3,5-difluoro-4-((2-fluoropyridin-4-yl)oxy)benzyl)oxy)-2,2-dimethyl-2,3-dihydroimidazo[1,2-c]pyrimidin-5(1H)-one]	≤ 1	≤ 100	
CC1Cn2c(cc(OCc3ccc(Oc4cc(F)cc(C(F)(F)F)c4)c(F)c3)nc2=O)N1C (stereo not drawn) [Example E119, 7-((3-fluoro-4-(3-fluoro-5-(trifluoromethyl)phenoxy)benzyl)oxy)-1,2-dimethyl-2,3-dihydroimidazo[1,2-c]pyrimidin-5(1H)-one]	≤ 1	≤ 100	
CC1Cn2c(cc(OCc3ccc(F)c(C#N)c3)nc2=O)N1C (stereo not drawn) [Example E121, 5-(((1,2-dimethyl-5-oxo-1,2,3,5-tetrahydroimidazo[1,2-c]pyrimidin-7-yl)oxy)methyl)-2-fluorobenzonitrile]	≤ 10	≤ 100	
CN1c2cc(OCc3ccc(F)c(F)c3)nc(=O)n2CC1(C)C [Example E122, 7-((3,4-difluorobenzyl)oxy)-1,2,2-trimethyl-2-dihydroimidazo[1,2-c]pyrimidin-5(1H)-one]	≤ 1	≤ 100	
C[C@@H]1Cn2c(cc(OCc3ccc(Oc4cncc(C(F)(F)F)c4)c(C#N)c3)nc2=O)N1C [Example E123, (R)-5-(((1,2-dimethyl-5-oxo-1,2,3,5-tetrahydroimidazo[1,2-c]pyrimidin-7-yl)oxy)methyl)-2-((5-(trifluoromethyl)pyridin-3-yl)oxy)benzonitrile]	≤ 1	≤ 100	
CN1c2cc(OCc3cccc(C#N)c3)nc(=O)n2CC1(C)C [Example E124, 3-(((1,2,2-trimethyl-5-oxo-1,2,3,5-tetrahydroimidazo[1,2-c]pyrimidin-7-yl)oxy)methyl)benzonitrile]	≤ 1	≤ 100	
CC1(C)Cn2c(cc(OCc3cc(F)c(Oc4ccnc(C(F)(F)F)c4)c(F)c3)nc2=O)N1 [Example E127, 7-((3,5-difluoro-4-((2-(trifluoromethyl)pyridin-4-yl)oxy)benzyl)oxy)-2,2-dimethyl-2,3-dihydroimidazo[1,2-c]pyrimidin-5(1H)-one]	≤ 1	≤ 100	
CC1(C)Cn2c(cc(OCc3cc(F)c(Oc4cncc(Cl)c4)c(F)c3)nc2=O)N1 [Example E128, 7-((4-((5-chloropyridin-3-yl)oxy)-3,5-difluorobenzyl)oxy)-2,2-dimethyl-2,3-dihydroimidazo[1,2-c]pyrimidin-5(1H)-one]	≤ 1	≤ 100	
CCN1c2cc(OCc3cc(F)cc(F)c3)nc(=O)n2CC1(C)C [Example E129, 7-((3,5-difluorobenzyl)oxy)-1-ethyl-2,2-dimethyl-2,3-dihydroimidazo[1,2-c]pyrimidin-5(1H)-one]	≤ 10	≤ 100	
C[C@H]1Cn2c(cc(OCc3cc(F)c(Oc4ccnc(C(F)(F)F)c4)c(F)c3)nc2=O)N1 [Example E131, (S)-7-((3,5-difluoro-4-((2-(trifluoromethyl)pyridin-4-yl)oxy)benzyl)oxy)-2-methyl-2,3-dihydroimidazo[1,2-c]pyrimidin-5(1H)-one]	≤ 1	≤ 100	
CC1(C)Cn2c(cc(OCc3cc(F)c(Oc4ccc(Cl)nc4)c(F)c3)nc2=O)N1 [Example E133, 7-((4-((6-chloropyridin-3-yl)oxy)-3,5-difluorobenzyl)oxy)-2,2-dimethyl-2,3-dihydroimidazo[1,2-c]pyrimidin-5(1H)-one]	≤ 1	≤ 100	
CC1(C)Cn2c(cc(OCc3cc(F)c(Oc4ccc(F)nc4)c(F)c3)nc2=O)N1 [Example E134, 7-((3,5-difluoro-4-((6-fluoropyridin-3-yl)oxy)benzyl)oxy)-2,2-dimethyl-2,3-dihydroimidazo[1,2-c]pyrimidin-5(1H)-one]	≤ 1	≤ 100	
[2H]C1([2H])n2c(cc(OCc3cccc(F)c3F)nc2=O)N(C)C1(C)C [Example E136, 7-((2,3-difluorobenzyl)oxy)-1,2,2-trimethyl-3,3-dideutero-2,3-dihydroimidazo[1,2-c]pyrimidin-5(1H)-one]	≤ 10	≤ 100	
[2H]C1([2H])n2c(cc(OCc3cc(F)cc(F)c3)nc2=O)N(C)C1(C)C [Example E137, 7-((3,5-difluorobenzyl)oxy)-1,2,2-trimethyl-3,3-dideutero-2,3-dihydroimidazo[1,2-c]pyrimidin-5(1H)-one]	≤ 10	≤ 100	
